The target in series [1] is T1, UDP-3-O-acyl-N-acetylglucosamine deacetylase (Escherichia coli K-12) (UniProt P0A725).
T1 sequence (whole entry): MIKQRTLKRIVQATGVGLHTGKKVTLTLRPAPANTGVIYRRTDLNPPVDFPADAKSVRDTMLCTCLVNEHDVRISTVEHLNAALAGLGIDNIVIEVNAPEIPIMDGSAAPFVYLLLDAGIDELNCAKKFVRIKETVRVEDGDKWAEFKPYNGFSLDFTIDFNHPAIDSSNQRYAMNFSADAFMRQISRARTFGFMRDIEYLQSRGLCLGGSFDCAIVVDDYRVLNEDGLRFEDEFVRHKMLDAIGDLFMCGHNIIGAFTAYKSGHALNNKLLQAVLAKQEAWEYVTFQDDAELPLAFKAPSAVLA
Nature of the series: Inhibition of LpxC in Escherichia coli AB1157 assessed as reduction in microbial growth incubated for 22 hrs by MTT assay.

The target of series [2] is T1, UDP-3-O-acyl-N-acetylglucosamine deacetylase (Escherichia coli K-12). Nature of the series: Inhibition of LpxC in Escherichia coli DH5[alpha] assessed as reduction in microbial growth incubated for 22 hrs by MTT assay. On the technique in general: Tetrazolium dyes change colour on reduction, which living cells bring about.
Series [3] is described as follows: Intrinsic clearance in human liver microsomes assessed as per gram protein at 0.1 umol/L in presence of NADPH by LC/MS/MS method. It is filed as ADME, microsome. The conditions noted are these: 0.1 µM. A general note: Microsomes from liver hold many membrane-bound enzymes, among them those of drug oxidation.
Series [4] is described as follows: Elimination half life in human liver microsomes at 0.1 umol/L in presence of NADPH by LC/MS/MS method. It is filed as ADME, microsome. The conditions noted are these: read-out: beta t1/2.
The target of series [5] is T2, UDP-3-O-acyl-N-acetylglucosamine deacetylase (Pseudomonas aeruginosa (strain ATCC 15692 / PAO1 / 1C / PRS 101 / LMG12228)) (UniProt P47205).
T2 sequence (whole entry): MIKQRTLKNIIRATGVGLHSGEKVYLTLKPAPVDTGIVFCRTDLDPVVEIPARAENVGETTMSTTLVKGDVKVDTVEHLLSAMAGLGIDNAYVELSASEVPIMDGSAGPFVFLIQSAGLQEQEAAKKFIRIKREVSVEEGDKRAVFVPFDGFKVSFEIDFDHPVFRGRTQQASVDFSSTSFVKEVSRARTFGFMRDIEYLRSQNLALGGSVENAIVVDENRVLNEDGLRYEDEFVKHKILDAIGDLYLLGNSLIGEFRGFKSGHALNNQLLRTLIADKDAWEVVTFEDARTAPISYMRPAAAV

Series [6] can be described thus: Elimination half life in mouse liver microsomes at 0.1 umol/L in presence of NADPH by LC/MS/MS method. The conditions noted are these: read-out: beta t1/2. It counts as ADME, microsome.
Series [7] can be described thus: Intrinsic clearance in mouse liver microsomes assessed as per gram protein at 0.1 umol/L in presence of NADPH by LC/MS/MS method. The conditions noted are these: 0.1 µM. Also noted: unit not given here. It is filed as ADME, microsome.
Series [8] relates to Pseudomonas aeruginosa PA14. Nature of the series: Inhibition of LpxC in Pseudomonas aeruginosa PA14 assessed as reduction in microbial growth incubated for 22 hrs by MTT assay.
The nature of series [9]: Stability in human liver microsomes assessed as drug netabolism at 0.1 umol/L after 60 mins in presence of NADPH by LC/MS/MS method. It is filed as ADME, microsome. The conditions noted are these: 1 h, 0.1 µM.

Results on 25 compounds are retold here after ChEMBL document CHEMBL4177739, “Design, synthesis and structure-activity relationship evaluation of novel LpxC inhibitors as Gram-negative antibacterial agents” (Bioorg Med Chem Lett, 2018).

The structures appear in SMILES notation. In brackets after ≈: the same amount, converted by molar mass.

As to `C[C@@H](O)[C@H](NC(=O)c1ccc(C#CC#CC2CC2)cc1O)C(=O)NO`, the MIC in [1] was 0.078 µg/mL; in [2] it was 0.156 µg/mL; in series [5], 0.625 µg/mL (≈ 1.83 µM); in [8], 0.625 µg/mL. Moreover, in [3], the intrinsic clearance is 8 mL/min/g. The half-life at 0.1 µM in series [4] is 4.55 h; in series [6], 3.88 h. Moreover, the “intrinsic clearance in liver microsomes” value in series [7] was found to be 9.
In the case of `C[C@@H](O)[C@H](NC(=O)c1ccc(C#CC#CC2CC2)cc1)C(=O)NO`, the MIC in [1] was 0.024 µg/mL; in series [2], 0.024 µg/mL; in series [5], 0.19 µg/mL (≈ 0.582 µM); in series [8], 0.19 µg/mL. Besides, the intrinsic clearance in [3] turned out to be 3 mL/min/g. Also, the half-life at 0.1 µM in series [4] amounted to 10.6 h; in [6], 3.17 h. For the same compound, the “intrinsic clearance in liver microsomes” value in series [7] turned out to be 11.
On to `C[C@@H](O)[C@H](NC(=O)c1ccc(C#CC#CC2CC2)cc1N)C(=O)NO`, for which the MIC in series [1] amounted to 0.04 µg/mL; in series [2], 0.04 µg/mL; in [5], 0.625 µg/mL (≈ 1.83 µM); in series [8], 0.625 µg/mL.
On to `CC(CCc1ccc(-c2ccccc2)cc1)(C(=O)NO)S(C)(=O)=O` (racemic), for which the MIC in series [1] is 1 µg/mL; in series [2] it was 0.4 µg/mL; in series [5], 0.31 µg/mL (≈ 0.892 µM); in [8] it was 0.31 µg/mL.
With `C[C@@H](O)[C@H](NC(=O)[C@@H]1CN(c2ccc(-c3ccccc3)cc2)C(=O)O1)C(=O)NO`, the MIC in [1], in [2], in series [5] and in [8] was more than 256 µg/mL each time.
For `C[C@@H](O)[C@H](NC(=O)c1ccc(C#CC#CC2CC2)cc1OC(F)F)C(=O)NO`, the MIC turned out to be 0.156 µg/mL in series [1], 0.31 µg/mL in series [2], 10 µg/mL (≈ 25.5 µM) in series [5] and 10 µg/mL in series [8].
Regarding `C[C@@H](O)[C@@H](CN(O)C=O)NC(=O)c1ccc(C#CC#CC2CC2)cc1`, the MIC in [1], in series [2], in [5] and in [8] was more than 256 µg/mL each time.
On to `CC(CCc1ccc(-c2ccccc2)cc1)(C(=O)Nc1ccccc1N)S(C)(=O)=O` (stereo not given), for which the MIC in series [1], in [2], in [5] and in series [8] was more than 256 µg/mL in each case.
`C[C@@H](O)[C@H](NC(=O)c1ccc(C#Cc2ccc(CN3CCOCC3)cc2)cc1)C(=O)NO`: the MIC in [1] and in series [2] was 0.156 µg/mL throughout.
For the compound `C[C@@H](O)[C@H](NC(=O)[C@H]1CN(c2ccc(-c3ccccc3)cc2)C(=O)O1)C(=O)NO`, the MIC in series [1], in series [2], in series [5] and in series [8] was more than 256 µg/mL in each case.
Regarding `CC(C)(N)[C@H](NC(=O)c1ccc(C#CC#CC2CC2)cc1O)C(=O)NO`, the MIC in [1] was 0.078 µg/mL; in [2], 0.078 µg/mL; in series [5], 0.625 µg/mL (≈ 1.76 µM); in series [8], 0.625 µg/mL. Moreover, the Stability result in series [9] is given as “Stable”. Also, the intrinsic clearance in [3] amounted to 0 mL/min/g. Also, in series [6], the half-life at 0.1 µM amounted to 1.58 h. Besides, in series [7], the “intrinsic clearance in liver microsomes” value is listed as 22.
As to `C[C@@H](O)[C@H](NC(=O)[C@@H]1CN(c2ccc(C#Cc3ccccc3)cc2)C(=O)O1)C(=O)NO`, the MIC in [1], in [2], in series [5] and in series [8] was more than 256 µg/mL throughout.
For the compound `C[C@@H](O)[C@H](NC(=O)c1ccc(C#CC#CC2CC2)cn1)C(=O)NO`, the MIC in series [1] was 1.25 µg/mL; in series [2], 0.625 µg/mL; in [5] it was 20 µg/mL (≈ 61.1 µM); in [8], 10 µg/mL.
For `CC(C)(N)[C@H](NC(=O)c1ccc(C#CC#CC2CC2)cc1F)C(=O)NO`, the MIC in series [1] worked out at 0.078 µg/mL; in series [2], 0.04 µg/mL; in [5] it was 0.625 µg/mL (≈ 1.75 µM); in series [8] it was 0.31 µg/mL. Besides, the Stability entry in [9] was “Stable”. The intrinsic clearance in series [3] is listed as 0 mL/min/g. Besides, the half-life at 0.1 µM in series [6] was 4 h. Also, in series [7], the “intrinsic clearance in liver microsomes” value stood at 9.
With `C[C@@H](O)[C@H](NC(=O)[C@H]1CN(c2ccc(C#Cc3ccccc3)cc2)C(=O)O1)C(=O)NO`, the MIC in series [1], in series [2], in series [5] and in series [8] was more than 256 µg/mL each time.
Take `C[C@@H](O)[C@H](NC(=O)c1ccc(C#CC#CC2CC2)cc1[N+](=O)[O-])C(=O)NO`: the MIC in series [1] came to 0.6 µg/mL; in [2], 0.4 µg/mL; in series [5] it was 5 µg/mL (≈ 13.5 µM); in [8], 5 µg/mL.
As to `COc1cc(C#CC#CC2CC2)ccc1C(=O)N[C@H](C(=O)NO)[C@@H](C)O`, the MIC in [1] was determined as 1.25 µg/mL; in [2] it was 2.5 µg/mL; in series [5] it was 10 µg/mL (≈ 28.1 µM); in series [8], 10 µg/mL.
With `C[C@@H](O)[C@H](NC(=O)c1ccc(C#CC#CC2CC2)cc1C#N)C(=O)NO`, the MIC in [1] was 80 µg/mL; in series [2], 40 µg/mL; in series [5], 40 µg/mL (≈ 114 µM); in series [8], 40 µg/mL.
For `CC(C)(N)[C@H](NC(=O)c1ccc(C#CC#CC2CC2)c(F)c1)C(=O)NO`, the MIC in series [1] is 0.019 µg/mL; in series [2], 0.019 µg/mL; in [5], 0.31 µg/mL (≈ 0.867 µM); in series [8], 0.31 µg/mL. Besides, the Stability entry in series [9] was “Stable”. Moreover, the intrinsic clearance in series [3] was found to be 0 mL/min/g. In addition, in series [6], the half-life at 0.1 µM was determined as 2.25 h. The “intrinsic clearance in liver microsomes” value in [7] turned out to be 16.
In the case of `C[C@@H](O)[C@H](NC(=O)c1ccc(C#CC#CC2CC2)c(F)c1)C(=O)NO`, the MIC in series [1] turned out to be 0.4 µg/mL; in series [2], 0.31 µg/mL; in series [5], 0.63 µg/mL (≈ 1.83 µM); in series [8] it was 0.63 µg/mL. In addition, in series [3], the intrinsic clearance is 1 mL/min/g. The half-life at 0.1 µM was found to be 44.4 h in series [4] and 2.38 h in series [6]. Further, in series [7], the “intrinsic clearance in liver microsomes” value turned out to be 15.
For `C[C@@H](O)[C@H](NC(=O)c1ccc(C#CC#CC2CC2)cc1Cl)C(=O)NO`, the MIC in series [1] was found to be 0.192 µg/mL; in [2], 0.048 µg/mL; in [5], 6.25 µg/mL (≈ 17.3 µM); in series [8], 6.25 µg/mL.
Turning to `C[C@@H](O)[C@H](NC(=O)c1ccc(C#CC#CC2CC2)cc1F)C(=O)NO`, the MIC in [1] turned out to be 0.31 µg/mL; in series [2] it was 0.31 µg/mL; in series [5], 2.5 µg/mL (≈ 7.26 µM); in series [8], 1.25 µg/mL. For the same compound, the intrinsic clearance in series [3] is 11 mL/min/g. Also, the figures for the half-life at 0.1 µM in series [4] and in series [6] were 3.33 h and 1.42 h, respectively. Also, in series [7], the “intrinsic clearance in liver microsomes” value is 25.
As for `CC(C)(N)[C@H](NC(=O)c1ccc(C#CC#CC2CC2)cc1)C(=O)NO`, the MIC in [1] is 0.039 µg/mL; in series [2], 0.012 µg/mL; in [5], 0.156 µg/mL (≈ 0.46 µM); in series [8], 0.078 µg/mL. In addition, the intrinsic clearance in series [3] worked out at 1 mL/min/g. Besides, the half-life at 0.1 µM in series [4] is 56.9 h; in series [6], 3.43 h. For the same compound, the “intrinsic clearance in liver microsomes” value in series [7] amounted to 10.
As to `Cc1cc(C#CC#CC2CC2)ccc1C(=O)N[C@H](C(=O)NO)[C@@H](C)O`, the MIC in [1] worked out at 0.156 µg/mL; in series [2], 0.156 µg/mL; in series [5], 5 µg/mL (≈ 14.7 µM); in series [8], 5 µg/mL.
With `C[C@@H](O)[C@H](NS(=O)(=O)c1ccc(C#CC#CC2CC2)cc1)C(=O)NO`, the MIC in [1] came out at 40 µg/mL; in series [2], 20 µg/mL; in series [5], 100 µg/mL (≈ 276 µM); in series [8] it was 50 µg/mL.
